# Experimental data reported in patent publication US11358949B2, “Carbamate and urea compounds as multikinase inhibitors” (ANGEX PHARMACEUTICAL, INC., priority 2017, dated 2022).
# Key:
# AXL = target: T1, AXL (Homo sapiens, UniProt P30530); assay: HotSpot Kinase Assay, AXL
# T1 sequence (P30530 26-894): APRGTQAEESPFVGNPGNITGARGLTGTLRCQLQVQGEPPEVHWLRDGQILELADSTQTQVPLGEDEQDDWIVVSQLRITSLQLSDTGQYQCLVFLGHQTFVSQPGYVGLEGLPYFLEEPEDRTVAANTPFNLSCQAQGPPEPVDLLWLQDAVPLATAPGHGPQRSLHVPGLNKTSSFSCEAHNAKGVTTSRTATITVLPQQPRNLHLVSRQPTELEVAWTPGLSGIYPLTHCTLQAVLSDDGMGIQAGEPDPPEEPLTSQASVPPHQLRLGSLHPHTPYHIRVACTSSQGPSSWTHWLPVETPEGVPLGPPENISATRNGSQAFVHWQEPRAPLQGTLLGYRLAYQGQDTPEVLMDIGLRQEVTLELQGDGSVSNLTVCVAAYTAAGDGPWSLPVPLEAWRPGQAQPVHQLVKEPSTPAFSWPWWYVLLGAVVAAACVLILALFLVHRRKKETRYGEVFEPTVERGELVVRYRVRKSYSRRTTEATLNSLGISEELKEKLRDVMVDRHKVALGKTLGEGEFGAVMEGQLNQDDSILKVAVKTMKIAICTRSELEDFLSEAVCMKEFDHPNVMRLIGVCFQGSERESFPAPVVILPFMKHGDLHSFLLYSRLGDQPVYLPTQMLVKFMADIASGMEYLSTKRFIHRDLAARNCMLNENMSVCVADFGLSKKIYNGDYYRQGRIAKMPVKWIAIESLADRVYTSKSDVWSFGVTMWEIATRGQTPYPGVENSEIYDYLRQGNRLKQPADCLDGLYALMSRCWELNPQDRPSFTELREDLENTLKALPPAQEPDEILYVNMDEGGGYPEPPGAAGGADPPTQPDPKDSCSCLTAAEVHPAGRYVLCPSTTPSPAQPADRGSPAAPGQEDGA
# FMS = FMS (Homo sapiens, UniProt P07333); assay: HotSpot Kinase Assay, FMS
# Protocol: (§1) Specifically, for each reaction, kinase and substrate were mixed in a pH 7.5 buffer containing 20 mM HEPES, 10 mM MgCl2, 1 mM EGTA [Ethylene glycol-bis(2-aminoethylether)-N,N,N′,N′-tetraacetic acid], 0.02% Brij35, 0.02 mg/mL BSA (Bovine Serum Albumin), 0.1 mM Na3VO4, 2 mM DTT, and 1% DMSO. Compounds were then added to each reaction mixture. After a 20-min incubation, ATP (Sigma-Aldrich) and [γ-^33P] ATP (PerkinElmer) were added at a final total concentration of 100 μM. Reactions were carried out at room temperature for 2 hours and spotted onto P81 ion exchange cellulose chromatography paper (Whatman). […] The percent remaining kinase activity relative to a vehicle-containing (DMSO) kinase reaction was calculated for each kinase/inhibitor pair. […] IC50 values were calculated using Prism 5 (GraphPad).
# DDR1 = DDR1 (Homo sapiens, UniProt Q08345); assay: HotSpot Kinase Assay, DDR1
# Protocol: as §1
# c-Kit = c-Kit (Homo sapiens, UniProt P10721); assay: HotSpot Kinase Assay, c-Kit
# c-MER = target: T2, c-MER (Homo sapiens, UniProt Q12866); assay: HotSpot Kinase Assay, c-MER
# T2 sequence (Q12866 21-999): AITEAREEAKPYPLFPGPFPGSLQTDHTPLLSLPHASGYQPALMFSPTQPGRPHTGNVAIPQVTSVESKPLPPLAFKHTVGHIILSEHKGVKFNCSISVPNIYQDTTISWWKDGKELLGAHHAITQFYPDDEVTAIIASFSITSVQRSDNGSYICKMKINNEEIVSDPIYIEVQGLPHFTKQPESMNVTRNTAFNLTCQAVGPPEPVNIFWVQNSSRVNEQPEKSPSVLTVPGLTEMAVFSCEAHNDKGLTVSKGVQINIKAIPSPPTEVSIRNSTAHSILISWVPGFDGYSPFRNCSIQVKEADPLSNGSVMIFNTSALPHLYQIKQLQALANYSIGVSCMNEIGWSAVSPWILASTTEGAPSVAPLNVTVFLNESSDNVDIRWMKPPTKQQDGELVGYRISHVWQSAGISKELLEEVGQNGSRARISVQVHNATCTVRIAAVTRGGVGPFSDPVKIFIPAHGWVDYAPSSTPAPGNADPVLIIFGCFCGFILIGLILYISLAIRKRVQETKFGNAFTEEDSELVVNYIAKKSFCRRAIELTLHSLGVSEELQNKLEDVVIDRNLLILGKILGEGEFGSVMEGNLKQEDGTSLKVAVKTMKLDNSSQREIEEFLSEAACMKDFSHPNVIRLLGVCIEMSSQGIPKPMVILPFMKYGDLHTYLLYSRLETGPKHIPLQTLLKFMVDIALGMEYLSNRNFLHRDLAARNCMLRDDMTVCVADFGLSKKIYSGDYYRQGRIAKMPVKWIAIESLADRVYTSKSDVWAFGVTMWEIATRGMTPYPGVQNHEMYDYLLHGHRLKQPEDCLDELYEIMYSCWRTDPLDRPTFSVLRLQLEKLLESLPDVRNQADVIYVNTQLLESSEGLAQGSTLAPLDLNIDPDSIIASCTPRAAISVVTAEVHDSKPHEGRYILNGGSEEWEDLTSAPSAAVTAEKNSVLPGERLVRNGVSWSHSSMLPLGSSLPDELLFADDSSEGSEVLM
# Protocol: as §1
# c-MET = c-MET (Homo sapiens, UniProt P08581); assay: HotSpot Kinase Assay, c-MET
# Protocol: as §1
# EPHA2 = EPHA2 (Homo sapiens, UniProt P29317); assay: HotSpot Kinase Assay, EPHA2
# Protocol: as §1
# LOK/STK10 = LOK/STK10 (Homo sapiens, UniProt O94804); assay: HotSpot Kinase Assay, LOK/STK10
# Protocol: as §1
# TYRO3/SKY = target: T3, TYRO3/SKY (Homo sapiens, UniProt Q06418); assay: HotSpot Kinase Assay, TYRO3/SKY
# T3 sequence (Q06418 41-890): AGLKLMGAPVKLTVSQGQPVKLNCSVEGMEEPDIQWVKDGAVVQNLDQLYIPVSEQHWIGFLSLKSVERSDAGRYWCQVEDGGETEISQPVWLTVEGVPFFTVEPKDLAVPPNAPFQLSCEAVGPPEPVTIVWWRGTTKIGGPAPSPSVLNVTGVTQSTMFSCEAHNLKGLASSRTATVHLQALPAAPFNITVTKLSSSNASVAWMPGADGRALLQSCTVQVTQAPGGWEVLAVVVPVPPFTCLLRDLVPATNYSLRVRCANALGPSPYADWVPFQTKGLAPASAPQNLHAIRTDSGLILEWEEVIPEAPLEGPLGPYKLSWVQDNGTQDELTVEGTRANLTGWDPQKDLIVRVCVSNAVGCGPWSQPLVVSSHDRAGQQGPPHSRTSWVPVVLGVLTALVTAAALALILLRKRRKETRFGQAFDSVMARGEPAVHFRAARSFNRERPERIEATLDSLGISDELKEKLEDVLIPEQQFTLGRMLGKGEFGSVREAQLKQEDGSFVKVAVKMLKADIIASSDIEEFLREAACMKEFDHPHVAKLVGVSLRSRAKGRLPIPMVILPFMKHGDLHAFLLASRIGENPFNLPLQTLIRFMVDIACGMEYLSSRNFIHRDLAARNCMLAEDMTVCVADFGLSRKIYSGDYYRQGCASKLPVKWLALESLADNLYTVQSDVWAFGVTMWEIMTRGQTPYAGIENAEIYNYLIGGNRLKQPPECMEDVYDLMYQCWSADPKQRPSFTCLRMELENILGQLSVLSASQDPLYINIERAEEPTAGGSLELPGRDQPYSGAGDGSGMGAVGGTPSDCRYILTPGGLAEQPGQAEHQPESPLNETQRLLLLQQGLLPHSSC
# Protocol: as §1
# KDR/VEGFR2 = KDR/VEGFR2 (Homo sapiens, UniProt P35968); assay: HotSpot Kinase Assay, KDR/VEGFR2
# Sequence of c-Kit (P10721 26-976): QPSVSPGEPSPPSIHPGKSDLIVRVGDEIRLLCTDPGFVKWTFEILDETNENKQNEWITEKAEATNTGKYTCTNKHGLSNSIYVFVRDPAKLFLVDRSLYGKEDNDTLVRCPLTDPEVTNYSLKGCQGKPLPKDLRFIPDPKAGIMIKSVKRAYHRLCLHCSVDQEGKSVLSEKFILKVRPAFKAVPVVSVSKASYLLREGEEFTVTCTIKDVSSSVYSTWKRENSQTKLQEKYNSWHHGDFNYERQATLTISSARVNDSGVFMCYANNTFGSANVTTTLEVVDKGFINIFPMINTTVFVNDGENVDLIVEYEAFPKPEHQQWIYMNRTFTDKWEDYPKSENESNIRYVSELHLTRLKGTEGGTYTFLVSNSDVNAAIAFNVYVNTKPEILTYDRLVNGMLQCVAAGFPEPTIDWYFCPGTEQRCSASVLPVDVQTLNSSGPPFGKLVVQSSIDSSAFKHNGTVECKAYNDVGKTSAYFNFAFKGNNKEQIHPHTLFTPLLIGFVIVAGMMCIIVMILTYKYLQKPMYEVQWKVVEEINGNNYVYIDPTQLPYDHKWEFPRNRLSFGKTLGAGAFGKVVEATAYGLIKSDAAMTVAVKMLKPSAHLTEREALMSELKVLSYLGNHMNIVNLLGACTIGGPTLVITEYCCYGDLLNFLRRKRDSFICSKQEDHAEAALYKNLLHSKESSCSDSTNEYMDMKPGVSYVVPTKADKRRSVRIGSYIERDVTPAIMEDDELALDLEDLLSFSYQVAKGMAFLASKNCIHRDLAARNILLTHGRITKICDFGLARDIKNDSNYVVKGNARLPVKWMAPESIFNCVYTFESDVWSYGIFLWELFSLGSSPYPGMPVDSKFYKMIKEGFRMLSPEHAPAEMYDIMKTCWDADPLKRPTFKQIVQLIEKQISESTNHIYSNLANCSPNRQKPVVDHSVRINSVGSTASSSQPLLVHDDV
# Sequence of EPHA2 (P29317 24-976): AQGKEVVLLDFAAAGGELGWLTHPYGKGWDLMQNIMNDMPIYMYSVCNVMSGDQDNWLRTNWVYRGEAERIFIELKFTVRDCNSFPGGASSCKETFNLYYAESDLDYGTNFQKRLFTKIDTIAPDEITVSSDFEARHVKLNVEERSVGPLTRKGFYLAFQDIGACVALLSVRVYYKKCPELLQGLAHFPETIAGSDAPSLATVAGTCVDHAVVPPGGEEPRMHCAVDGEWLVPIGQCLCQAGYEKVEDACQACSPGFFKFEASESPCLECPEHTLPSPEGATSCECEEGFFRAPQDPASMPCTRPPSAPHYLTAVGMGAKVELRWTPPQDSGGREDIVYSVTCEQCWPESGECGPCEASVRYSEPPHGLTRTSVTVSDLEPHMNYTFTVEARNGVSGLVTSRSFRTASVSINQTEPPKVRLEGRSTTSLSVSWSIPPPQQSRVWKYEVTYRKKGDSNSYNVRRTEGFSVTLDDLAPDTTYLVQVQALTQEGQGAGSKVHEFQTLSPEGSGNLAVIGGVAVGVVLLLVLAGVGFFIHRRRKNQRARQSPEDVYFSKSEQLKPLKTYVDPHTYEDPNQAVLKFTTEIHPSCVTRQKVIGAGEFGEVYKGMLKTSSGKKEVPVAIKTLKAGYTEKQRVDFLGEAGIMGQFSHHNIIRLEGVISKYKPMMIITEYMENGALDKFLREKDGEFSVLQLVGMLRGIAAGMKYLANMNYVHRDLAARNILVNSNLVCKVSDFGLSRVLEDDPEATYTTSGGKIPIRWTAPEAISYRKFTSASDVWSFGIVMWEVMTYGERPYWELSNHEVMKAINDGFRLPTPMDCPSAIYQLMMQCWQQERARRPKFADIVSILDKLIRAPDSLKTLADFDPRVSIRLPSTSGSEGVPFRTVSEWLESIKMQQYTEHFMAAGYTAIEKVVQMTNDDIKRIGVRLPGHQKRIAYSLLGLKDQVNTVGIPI
# Sequence of LOK/STK10 (O94804 whole entry): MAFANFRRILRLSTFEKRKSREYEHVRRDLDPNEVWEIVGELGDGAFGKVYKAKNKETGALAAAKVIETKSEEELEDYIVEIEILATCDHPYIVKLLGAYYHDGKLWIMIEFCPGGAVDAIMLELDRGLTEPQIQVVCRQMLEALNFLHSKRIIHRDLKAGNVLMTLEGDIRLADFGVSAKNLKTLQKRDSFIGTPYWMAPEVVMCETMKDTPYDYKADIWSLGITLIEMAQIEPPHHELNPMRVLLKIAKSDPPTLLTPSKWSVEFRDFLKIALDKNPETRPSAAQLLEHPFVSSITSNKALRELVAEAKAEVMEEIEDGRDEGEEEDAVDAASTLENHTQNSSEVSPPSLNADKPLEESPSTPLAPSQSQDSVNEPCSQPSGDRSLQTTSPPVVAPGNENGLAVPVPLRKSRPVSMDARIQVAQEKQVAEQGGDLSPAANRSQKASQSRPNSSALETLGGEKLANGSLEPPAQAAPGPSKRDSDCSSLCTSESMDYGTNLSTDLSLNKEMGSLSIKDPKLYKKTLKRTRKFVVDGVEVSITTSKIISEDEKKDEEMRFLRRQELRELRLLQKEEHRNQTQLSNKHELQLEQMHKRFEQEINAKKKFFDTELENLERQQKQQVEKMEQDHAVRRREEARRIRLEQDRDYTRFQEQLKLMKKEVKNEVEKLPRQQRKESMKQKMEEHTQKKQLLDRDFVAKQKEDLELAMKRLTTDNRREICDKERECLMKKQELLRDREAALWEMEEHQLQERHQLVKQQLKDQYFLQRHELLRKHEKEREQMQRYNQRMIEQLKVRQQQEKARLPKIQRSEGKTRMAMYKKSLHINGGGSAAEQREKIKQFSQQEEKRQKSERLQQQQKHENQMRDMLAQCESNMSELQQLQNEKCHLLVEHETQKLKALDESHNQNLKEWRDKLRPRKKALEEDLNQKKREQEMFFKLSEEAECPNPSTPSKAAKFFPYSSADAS
# Sequence of FMS (P07333 20-972): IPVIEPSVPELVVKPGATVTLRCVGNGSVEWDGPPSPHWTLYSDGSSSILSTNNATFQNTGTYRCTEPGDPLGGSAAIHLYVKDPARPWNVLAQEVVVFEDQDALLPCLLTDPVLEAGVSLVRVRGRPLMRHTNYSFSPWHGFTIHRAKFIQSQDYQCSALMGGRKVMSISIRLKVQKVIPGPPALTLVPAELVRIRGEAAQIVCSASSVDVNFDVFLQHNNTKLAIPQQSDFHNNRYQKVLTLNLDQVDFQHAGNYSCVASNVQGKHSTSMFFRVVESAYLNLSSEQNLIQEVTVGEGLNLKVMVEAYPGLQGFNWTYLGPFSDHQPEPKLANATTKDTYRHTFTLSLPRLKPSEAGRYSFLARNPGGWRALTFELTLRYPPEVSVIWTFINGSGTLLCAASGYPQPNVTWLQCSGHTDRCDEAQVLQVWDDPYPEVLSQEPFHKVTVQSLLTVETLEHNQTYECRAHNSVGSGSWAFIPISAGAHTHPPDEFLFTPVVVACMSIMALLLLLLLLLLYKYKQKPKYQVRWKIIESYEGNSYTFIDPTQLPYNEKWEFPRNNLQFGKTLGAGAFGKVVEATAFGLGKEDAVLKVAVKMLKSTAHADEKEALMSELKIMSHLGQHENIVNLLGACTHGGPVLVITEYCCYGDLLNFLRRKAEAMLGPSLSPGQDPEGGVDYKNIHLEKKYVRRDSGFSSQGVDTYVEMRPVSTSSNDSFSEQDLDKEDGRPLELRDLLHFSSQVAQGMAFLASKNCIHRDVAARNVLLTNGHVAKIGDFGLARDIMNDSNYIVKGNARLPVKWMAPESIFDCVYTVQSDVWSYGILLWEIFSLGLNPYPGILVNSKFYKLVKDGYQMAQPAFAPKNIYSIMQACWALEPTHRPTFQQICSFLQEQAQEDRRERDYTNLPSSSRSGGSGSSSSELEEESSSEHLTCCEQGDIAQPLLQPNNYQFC
# Sequence of DDR1 (Q08345 19-913): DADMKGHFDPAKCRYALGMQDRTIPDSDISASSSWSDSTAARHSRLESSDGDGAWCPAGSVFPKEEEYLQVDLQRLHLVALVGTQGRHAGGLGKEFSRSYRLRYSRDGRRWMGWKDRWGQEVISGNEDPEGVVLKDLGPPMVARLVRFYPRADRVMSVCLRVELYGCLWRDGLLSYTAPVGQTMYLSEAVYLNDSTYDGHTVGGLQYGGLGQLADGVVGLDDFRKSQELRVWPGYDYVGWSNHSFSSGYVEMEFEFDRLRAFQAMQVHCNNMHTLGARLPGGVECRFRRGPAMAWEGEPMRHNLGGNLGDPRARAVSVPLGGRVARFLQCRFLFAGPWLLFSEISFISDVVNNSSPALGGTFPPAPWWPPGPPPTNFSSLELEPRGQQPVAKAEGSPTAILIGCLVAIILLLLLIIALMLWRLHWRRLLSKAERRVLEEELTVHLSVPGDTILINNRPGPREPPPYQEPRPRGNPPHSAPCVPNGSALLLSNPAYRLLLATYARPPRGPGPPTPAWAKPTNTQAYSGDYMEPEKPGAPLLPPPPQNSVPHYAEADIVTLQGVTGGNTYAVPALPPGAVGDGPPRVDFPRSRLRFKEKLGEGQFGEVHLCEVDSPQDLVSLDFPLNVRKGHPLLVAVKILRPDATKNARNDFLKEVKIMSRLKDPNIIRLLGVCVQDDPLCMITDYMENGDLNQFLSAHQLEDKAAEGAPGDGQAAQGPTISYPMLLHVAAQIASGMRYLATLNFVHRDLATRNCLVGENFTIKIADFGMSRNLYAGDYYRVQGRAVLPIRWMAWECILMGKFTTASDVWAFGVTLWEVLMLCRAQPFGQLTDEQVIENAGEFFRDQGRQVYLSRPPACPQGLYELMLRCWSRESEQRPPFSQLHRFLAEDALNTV
SMILES,IC50 (AXL),IC50 (FMS),IC50 (DDR1),IC50 (c-Kit),IC50 (c-MER),IC50 (c-MET),IC50 (EPHA2),IC50 (LOK/STK10),IC50 (TYRO3/SKY),IC50 (KDR/VEGFR2)
COc1cc2c(Oc3ccc(NC(=O)C4(C(=O)Nc5ccc(F)cc5)CC4)cc3)ccnc2cc1OC(=O)N1CCNC[C@H]1C [Compound 6-4],< 100 nM,< 100 nM,< 100 nM,< 100 nM,< 100 nM,< 100 nM,100 to 1000 nM,100 to 1000 nM,100 to 1000 nM,100 to 1000 nM
COc1cc2nccc(Oc3ccc(NC(=O)C4(C(=O)Nc5ccc(F)cc5)CC4)cc3)c2cc1OC(=O)N1CCN(C)CC1 [Compound 5-10],< 100 nM,< 100 nM,< 100 nM,< 100 nM,< 100 nM,< 100 nM,< 100 nM,100 to 1000 nM,< 100 nM,< 100 nM
COc1cc2nccc(Oc3ccc(NC(=O)C4(C(=O)Nc5ccc(F)cc5)CC4)cc3)c2cc1OC(=O)N1CCN(C)C[C@H]1C [Compound 7-3],< 100 nM,< 100 nM,< 100 nM,< 100 nM,< 100 nM,< 100 nM,100 to 1000 nM,100 to 1000 nM,< 100 nM,< 100 nM
COc1cc2c(Oc3ccc(NC(=O)C4(C(=O)Nc5ccc(F)cc5)CC4)cc3)ccnc2cc1OC(=O)N1C[C@@H]2C[C@H]1CN2C [Compound 2-7],< 100 nM,< 100 nM,< 100 nM,< 100 nM,< 100 nM,< 100 nM,< 100 nM,100 to 1000 nM,100 to 1000 nM,100 to 1000 nM
COc1cc2c(Oc3ccc(NC(=O)C4(C(=O)Nc5ccc(F)cc5)CC4)cc3)ccnc2cc1OC(=O)N1[C@H](C)CN(C)C[C@@H]1C [Compound 6-3],< 100 nM,100 to 1000 nM,< 100 nM,< 100 nM,< 100 nM,100 to 1000 nM,100 to 1000 nM,100 to 1000 nM,100 to 1000 nM,100 to 1000 nM
COc1cc2c(Oc3ccc(NC(=O)C4(C(=O)Nc5ccc(F)cc5)CC4)cc3)ccnc2cc1OC(=O)N(C)C [Compound 1-15],100 to 1000 nM,100 to 1000 nM,< 100 nM,100 to 1000 nM,100 to 1000 nM,100 to 1000 nM,> 1000 nM,100 to 1000 nM,> 1000 nM,> 1000 nM
"COc1cc2c(Oc3ccc(NC(=O)C4(C(=O)Nc5ccc(F)cc5)CC4)cc3F)ncnc2cc1OC(=O)N1CCN(C)C[C@H]1C [Compound 9-6, 4-(2-fluoro-4-(1-((4-fluorophenyl)carbamoyl)cyclopropane-1-carboxamido)phenoxy)-6-methoxyquinazolin-7-yl (R)-2,4-methylpiperazine-1-carboxylate]",< 100 nM,100 to 1000 nM,< 100 nM,100 to 1000 nM,< 100 nM,< 100 nM,100 to 1000 nM,> 1000 nM,100 to 1000 nM,100 to 1000 nM
COc1cc2c(Oc3ccc(NC(=O)C4(C(=O)Nc5ccc(F)cc5)CC4)cc3F)ccnc2cc1OC(=O)N1CCN(C)C[C@@H]1C [Compound 3-6],< 100 nM,100 to 1000 nM,< 100 nM,100 to 1000 nM,< 100 nM,< 100 nM,< 100 nM,100 to 1000 nM,100 to 1000 nM,100 to 1000 nM
COc1cc2c(Oc3ccc(NC(=O)C4(C(=O)Nc5ccc(F)cc5)CC4)cc3)ccnc2cc1OC(=O)N1C[C@H]2C[C@@H]1CN2C [Compound 2-6],< 100 nM,< 100 nM,< 100 nM,< 100 nM,< 100 nM,< 100 nM,< 100 nM,100 to 1000 nM,100 to 1000 nM,100 to 1000 nM
COc1cc2c(Oc3ccc(NC(=O)C4(C(=O)Nc5ccc(F)cc5)CC4)cc3)ccnc2cc1OC(=O)N1CCN(C)C[C@@H]1C [Compound 1-12],< 100 nM,100 to 1000 nM,< 100 nM,< 100 nM,< 100 nM,< 100 nM,100 to 1000 nM,100 to 1000 nM,100 to 1000 nM,100 to 1000 nM
